From PubChem BioAssay (NCI)
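96-well plates; 48 h exposure; 5 concentrations. Endpoints by linear interpolation between flanking doses. Not reached: highest tested concentration assigned. GI50: concentration for 50% inhibition of growth. Definition used: TGI = concentration required for complete inhibition of growth.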

Columns and labels:
Assay in all cases: DTP human tumour cell line panel, 48 h
786-0 renal = test system: 786-0 renal
A498 renal = test system: A498 renal
A549 NSCLC = test system: A549 NSCLC
ACHN renal = test system: ACHN renal
BT-549 breast = test system: BT-549 breast
CAKI-1 renal = test system: CAKI-1 renal
CCRF-CEM leukemia = test system: CCRF-CEM leukemia
COLO 205 colon = test system: COLO 205 colon
DU-145 prostate = test system: DU-145 prostate
EKVX NSCLC = test system: EKVX NSCLC
HCC-2998 colon = test system: HCC-2998 colon
HCT-116 colon = test system: HCT-116 colon
HCT-15 colon = test system: HCT-15 colon
HL-60(TB) leukemia = test system: HL-60(TB) leukemia
HOP-62 NSCLC = test system: HOP-62 NSCLC
HOP-92 NSCLC = test system: HOP-92 NSCLC
HS 578T breast = test system: HS 578T breast
HT29 colon = test system: HT29 colon
IGROV1 ovarian = test system: IGROV1 ovarian
K-562 leukemia = test system: K-562 leukemia
KM12 colon = test system: KM12 colon
LOX IMVI melanoma = test system: LOX IMVI melanoma
M14 melanoma = test system: M14 melanoma
MALME-3M melanoma = test system: MALME-3M melanoma
MCF7 breast = test system: MCF7 breast
MDA-MB-231 breast = test system: MDA-MB-231 breast
MDA-MB-435 = test system: MDA-MB-435
MOLT-4 leukemia = test system: MOLT-4 leukemia
NCI-H226 lung = test system: NCI-H226 lung
NCI-H23 lung = test system: NCI-H23 lung
NCI-H460 lung = test system: NCI-H460 lung
NCI-H522 lung = test system: NCI-H522 lung
NCI/ADR-RES ovarian = test system: NCI/ADR-RES ovarian
OVCAR-3 ovarian = test system: OVCAR-3 ovarian
OVCAR-4 ovarian = test system: OVCAR-4 ovarian
OVCAR-5 ovarian = test system: OVCAR-5 ovarian
OVCAR-8 ovarian = test system: OVCAR-8 ovarian
PC-3 prostate = test system: PC-3 prostate
RPMI-8226 leukemia = test system: RPMI-8226 leukemia
RXF 393 renal = test system: RXF 393 renal
SF-268 CNS = test system: SF-268 CNS
SF-295 CNS = test system: SF-295 CNS
SF-539 CNS = test system: SF-539 CNS
SK-MEL-2 melanoma = test system: SK-MEL-2 melanoma
SK-MEL-28 melanoma = test system: SK-MEL-28 melanoma
SK-MEL-5 melanoma = test system: SK-MEL-5 melanoma
SK-OV-3 ovarian = test system: SK-OV-3 ovarian
SN12C renal = test system: SN12C renal
SNB-19 CNS = test system: SNB-19 CNS
SNB-75 CNS = test system: SNB-75 CNS
SR leukemia = test system: SR leukemia
SW-620 colon = test system: SW-620 colon
T-47D breast = test system: T-47D breast
TK-10 renal = test system: TK-10 renal
U251 CNS = test system: U251 CNS
UACC-257 melanoma = test system: UACC-257 melanoma
UACC-62 melanoma = test system: UACC-62 melanoma
UO-31 renal = test system: UO-31 renal

## N#Cc1cccc(/C(N)=N/C(N)=N/c2nc3ccccc3s2)c1
786-0 renal
  GI50: 0.733 µM
  TGI: > 77.7 µM
A498 renal
  GI50: 1.13 µM
  TGI: 11.6 µM
A549 NSCLC
  GI50: 3.48 µM
  TGI: > 100 µM
ACHN renal
  GI50: 0.855 µM
  TGI: > 100 µM
BT-549 breast
  GI50: 1.03 µM
  TGI: > 59.3 µM
CAKI-1 renal
  GI50: 0.538 µM
  TGI: > 34.3 µM
CCRF-CEM leukemia
  GI50: 0.551 µM
  TGI: > 100 µM
COLO 205 colon
  GI50: 1.02 µM
  TGI: > 100 µM
DU-145 prostate
  GI50: 1.56 µM
  TGI: > 100 µM
EKVX NSCLC
  GI50: 2.41 µM
  TGI: > 100 µM
HCC-2998 colon
  GI50: 2.85 µM
  TGI: > 100 µM
HCT-116 colon
  GI50: 0.487 µM
  TGI: > 100 µM
HCT-15 colon
  GI50: 0.443 µM
  TGI: > 100 µM
HL-60(TB) leukemia
  GI50: 0.311 µM
HOP-62 NSCLC
  GI50: 0.609 µM
  TGI: 18.2 µM
HOP-92 NSCLC
  GI50: 2.75 µM
  TGI: > 60.6 µM
HS 578T breast
  GI50: 0.531 µM
  TGI: > 43.3 µM
HT29 colon
  GI50: 0.45 µM
  TGI: > 100 µM
IGROV1 ovarian
  GI50: 0.826 µM
  TGI: > 100 µM
K-562 leukemia
  GI50: 0.316 µM
  TGI: > 100 µM
KM12 colon
  GI50: 0.511 µM
  TGI: > 100 µM
LOX IMVI melanoma
  GI50: 0.614 µM
  TGI: > 100 µM
M14 melanoma
  GI50: 0.513 µM
  TGI: > 100 µM
MALME-3M melanoma
  GI50: 1.57 µM
  TGI: > 66.7 µM
MCF7 breast
  GI50: 0.427 µM
  TGI: > 100 µM
MDA-MB-231 breast
  GI50: 2.64 µM
  TGI: > 100 µM
MDA-MB-435
  GI50: 0.211 µM
  TGI: 0.776 µM
MOLT-4 leukemia
  GI50: 0.657 µM
  TGI: > 25.6 µM
NCI-H226 lung
  GI50: 1.22 µM
  TGI: 73.8 µM
NCI-H23 lung
  GI50: 1.79 µM
  TGI: > 100 µM
NCI-H460 lung
  GI50: 0.479 µM
  TGI: > 100 µM
NCI-H522 lung
  GI50: 0.481 µM
  TGI: > 100 µM
NCI/ADR-RES ovarian
  GI50: 0.437 µM
  TGI: > 100 µM
OVCAR-3 ovarian
  GI50: 0.508 µM
  TGI: > 23.2 µM
OVCAR-4 ovarian
  GI50: 2.74 µM
  TGI: > 100 µM
OVCAR-5 ovarian
  GI50: 3.65 µM
  TGI: > 100 µM
OVCAR-8 ovarian
  GI50: 1.59 µM
  TGI: > 100 µM
PC-3 prostate
  GI50: 0.84 µM
  TGI: > 100 µM
RPMI-8226 leukemia
  GI50: 0.686 µM
  TGI: > 100 µM
RXF 393 renal
  GI50: 0.388 µM
  TGI: 2.42 µM
SF-268 CNS
  GI50: 1.7 µM
  TGI: > 71.7 µM
SF-295 CNS
  GI50: 0.504 µM
  TGI: > 41 µM
SF-539 CNS
  GI50: 0.457 µM
  TGI: 4.05 µM
SK-MEL-2 melanoma
  GI50: 1.33 µM
  TGI: > 60.7 µM
SK-MEL-28 melanoma
  GI50: 5.33 µM
  TGI: > 100 µM
SK-MEL-5 melanoma
  GI50: 0.699 µM
  TGI: > 28.2 µM
SK-OV-3 ovarian
  GI50: 1.79 µM
  TGI: 40.7 µM
SN12C renal
  GI50: 1.13 µM
  TGI: > 100 µM
SNB-19 CNS
  GI50: 0.614 µM
  TGI: > 72.6 µM
SNB-75 CNS
  GI50: 0.213 µM
  TGI: 9.33 µM
SR leukemia
  GI50: 0.437 µM
  TGI: > 100 µM
SW-620 colon
  GI50: 0.485 µM
  TGI: > 100 µM
T-47D breast
  GI50: 0.659 µM
  TGI: > 100 µM
TK-10 renal
  GI50: 9.17 µM
  TGI: > 92.4 µM
U251 CNS
  GI50: 0.591 µM
  TGI: > 54.4 µM
UACC-257 melanoma
  GI50: > 100 µM
  TGI: > 100 µM
UACC-62 melanoma
  GI50: 0.418 µM
  TGI: > 71.5 µM
UO-31 renal
  GI50: 1.81 µM
  TGI: > 100 µM
